Results reported in patent US6413747B1, “Enhancement of nucleic acid amplification by the addition of a polyamine” (Shimadzu Corporation, priority 1994, dated 2002).
Entries after “also recorded” stand apart in the source; their conditions may differ.

What was measured:
HIV DNA [1] = experiment: PCR with human white blood cells, 2 mM polyamine, varying number of HIV DNA copies (Experiment No. 2); assay type: biochemical, HIV-1; conditions: polyamine 2 mM; for number of HIV DNA copies detected (lowest): 40 cycles, copies/tube
Description: White blood cells were obtained by taking 14 μl (7×10^4 WBC) of human blood, centrifuging it and removing therefrom the supernatant. Various polyamines (2 mM), HIV DNA (1000, 100 10 and 0 copies/tube) and PCR core solution were added to the white blood cells thus collected for carrying out PCR (total 50 μl ). The same PCR core solution was used as in Experiment No. 1. The PCR was carried out for 40 cycles under the same conditions as in Experiment 1, and the amplification detection was carried out as in Experiment No. 1.

[2] = tested on: DNA from LT Escherichia coli; assay type: biochemical; conditions: for maximum concentration of feces at which amplification bands are observed, relative to no addition of polyamine (J) / appearance of amplification bands: polyamine 1 mM; for maximum concentration of feces at which amplification bands are observed, relative to no addition of polyamine (J): 40 cycles; for reduction of inhibition of PCR due to feces (summary): human feces samples; for appearance of amplification bands: human feces
Description: A sample was obtained by making an 8% suspension of human feces in TE buffer and subjecting it to a heat treatment at 95° C. for 10 minutes. […] The detection was carried out as in Experiment No. 1.

DNA = experiment: PCR with soil or tobacco leaf extract and spermidine (Example No. 3); assay type: biochemical; conditions: extract from soil or tobacco leaf (Groups B and C, Lanes 2-4)
Description: Used as the sample was 100 mg of sandy soil from a rice field or 100 mg of homogenized tobacco leaf. The sample was dissolved with 0.1 M EDTA and 0.1% SDS, purified with weakly negative ion-exchange resin (DEAE-Sepharose, fast flow (Pharmacia)), and eluted with 400 μl of 10 mM of tris-HCl (pH 7.0) containing 1 M NaCl. The extract which was colored light brown or light green indicated existence of much contamination of impurities for rough purification material. PCR was carried out after polyamine and PCR core solution were added to the extract. PCR core solution was prepared by removing KCl from the core solution used in Example No. 1. The amount of the PCR core solution was 24 μl, and 3 μl each of DNA-containing extract and spermidine solution was added thereto. PCR and detection of amplified DNA was carried out as in Example No. 1.
In FIG. 5, A indicates a positive control group containing only DNA, B indicates a group with soil extract mixed thereto, and C indicates a group with a tobacco leaf extract mixed thereto. The final concentration of polyamine was zero in Lane 1, 0.5 mM in Lane 2, 1 mM in Lane 3, 2 mM in Lane 4, 4 mM in Lane 5 and 8 mM in Lane 6. Lane M indicates a molecular weight marker.

HIV DNA [3] = experiment: PCR with human white blood cells, varying polyamine concentration (Experiment No. 1); assay type: biochemical, HIV-1
Description: White blood cells were obtained by taking 14 μl (7×10^4 WBC) of human blood, centrifuging it and removing therefrom the supernatant. Various kinds of polyamine, HIV DNA (100 copies/tube) and PCR core solution were added to the white blood cells thus collected for carrying out PCR (total 50 μl).
After a preheating process of 4 minutes at 94° C., the PCR was carried out for 50 cycles under the conditions of 94° C. for 30 seconds, 60° C. for 1 minute and 72° C. for 1 minute, followed by a polymerization process at 72° C. for 7 minutes. After the PCR was completed, DNAs were detected by electrophoresis with 3% agarose gel containing TAE buffer (40 mM Tris-acetate; 1 mM EDTA, pH 8.0) with 0.5 μg/ml etidium bromide by using 5 μl of the reaction mixture.
and the numerals (1-7) in FIG. 6 indicate the final concentration of polyamine as follows: […]

[4] = tested on: β-globin coding region of the mouse; experiment: PCR on white blood cells of mouse blood added to human blood, with spermidine (Example No. 2); assay type: biochemical; conditions: spermidine 2 mM, no purification of DNA
Description: Used as the sample was 23 μl of human blood (with 6000 white blood cells/microliter) into which 5 μl of mouse blood, diluted step-wise with a phosphate buffer, was added. After the sample was subjected to a lysis process of red blood cells, the white blood cells were precipitated by centrifugation and the supernatant was removed. Polyamine and PCR core solution were added to the precipitated white cells. The primers for the PCR were oligonucleotide (P3, sequence number=3) homologous to plus-chain and oligonucleotide (P4, sequence number=4) homologous to minus-chain, which are located in the β-globin coding region of the mouse and what gives 174 bp PCR products: where
The same PCR core solution was used as in Example No. 1 except that the primers were P3 and P4. The total amount of the PCR reaction solution was 100 μl, and 10 μl of spermidine solution (final concentration: 2 mM) was added. PCR and detection of amplified DNA were carried out as in Example No. 1. […] If polyamine is added (Group A), by contrast, the inhibition of the amplification reaction is effectively removed, and the presence of PCR products can be detected if there are as few as about ten white blood cells of the mouse without any purification of DNA.

[5] = tested on: genomic DNA purified from cotton leaves; conditions: DNA isolated from plants; report by Wan and Wilkins; cited from earlier work

Molecule | number of HIV DNA copies detected (lowest) (HIV DNA [1]) | maximum concentration of feces at which amplification bands are observed, relative to no addition of polyamine (J) [2] | reduction of inhibition of PCR due to feces (summary) [2] | further results
NCCN [A, Ethylenediamine] | 10 copies | 4 times | – | –
NCCCCN [C, Putrescine] | 10 copies | twice as large | hardly any effect | –
NCCNCCN [D, Diethylenetriamine] | 10 copies | 8 times | – | sensitivity relative to E (HIV DNA [1]): about 10 times; appearance of amplification bands [2]: brighter and thicker amplification bands than E
NCCCCNCCCN [E, Spermidine] | – | 8 times | – | polyamine concentration at which PCR products can be detected (DNA): 0.5 to 2 mM; amplification (HIV DNA [3]; polyamine concentration 0.25 mM, human blood): No amplification; number of white blood cells of the mouse at which PCR products can be detected [4]: about ten; optimum concentration [5]: 0.2 to 1 mM
NCCNCCNCCN [F, Triethylenetetramine] | 10 copies | 16 times | good results | –
NCCCNCCCCNCCCN [G, Spermine] | could not be detected | 4 times | hardly any effect | appearance of amplification bands [2]: only thin amplification bands; effect on PCR-inhibiting substances derived from blood (HIV DNA [3]; polyamine 0.125-8 mM, human white blood cells, 100 copies HIV DNA/tube, 50 cycles): hardly any effect; also recorded: no such effect was observed
NCCNCCNCCNCCN [H, Tetraethylenepentamine] | 10 copies | – | good results | –
Trimethylenediamine [B] | 10 copies | twice as large | hardly any effect | –
